Results on five compounds are retold here after article PMC10981527 (Bioorganic & medicinal chemistry letters, 2024).

For assay [1] the following is noted: observed only at high concentrations; cited from earlier work.
A further assay has as its system myeloma cells. To be noted: cited from earlier work.
Assay [2] concerns farnesyl diphosphate synthase (FDPS). To be noted: in words; cited from earlier work.
The target in assay [3] is T1, geranylgeranyl diphosphate synthase (GGDPS) (Homo sapiens, UniProt O95749).
T1 sequence (O95749 1-300): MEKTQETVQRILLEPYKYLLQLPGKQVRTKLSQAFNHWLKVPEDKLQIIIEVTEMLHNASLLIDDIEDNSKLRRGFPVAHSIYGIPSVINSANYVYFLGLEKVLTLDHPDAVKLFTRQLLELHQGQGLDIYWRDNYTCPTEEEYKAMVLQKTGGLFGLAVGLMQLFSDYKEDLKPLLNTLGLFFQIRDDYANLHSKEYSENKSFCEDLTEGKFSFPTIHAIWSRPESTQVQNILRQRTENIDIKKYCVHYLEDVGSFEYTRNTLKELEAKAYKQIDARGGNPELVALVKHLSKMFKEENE
To be noted: read-out: GGDPS IC50; historical control; cited from earlier work.

A further assay deals with RPMI-8226 cells. The settings on record: historical control; cited from earlier work.
Assay [4] has as its target T1, geranylgeranyl diphosphate synthase (GGDPS). In words: Enzyme assay utilizing recombinant GGDPS. Type of assay: biochemical.

Like-named read-outs stand apart in the source and are kept apart here.

As to `CC(C)=CCC/C(C)=C/CC(C/C=C(\C)CCC=C(C)C)(P(=O)(O)O)P(=O)(O)O` [Compound 3, digeranyl bisphosphonate], the “Concentration at which cellular activity was observed” value in assay [1] was ~ 10 μM.
Regarding `CC(C)=CCC/C(C)=C/CCn1cc(CC(P(=O)([O-])[O-])P(=O)([O-])[O-])nn1.[Na+].[Na+].[Na+].[Na+]` [Compound 5], the “Cellular activity, lowest concentration” value with myeloma cells (myeloma cells, mixture of olefin isomers) is 30 nM. Also, in assay [2], the “Specificity for GGDPS over FDPS” value is given as “high specificity”.
For `CC(C)=CCC/C(C)=C\CCn1cc(CC(C)(P(=O)([O-])[O-])P(=O)([O-])[O-])nn1.[Na+].[Na+].[Na+].[Na+]` [Compound 6], in assay [3], the IC50 is 125 ± 27 nM. For the same compound, in the assay on RPMI-8226 cells, the “Cellular LEC (lowest effective concentration)” value is 0.02 µM. Besides, in the assay on myeloma cells, the “Cellular activity, lowest concentration” value is listed as 20 nM.
With `CC(C)=CCC/C(C)=C/CCn1cc(CC(C)(P(=O)([O-])[O-])P(=O)([O-])[O-])nn1.[Na+].[Na+].[Na+].[Na+]` [Compound 7], the half-inhibitory concentration (IC50) in assay [3] is 86 ± 22 nM. Besides, the “Cellular activity, lowest concentration” value with myeloma cells is recorded as 25 nM.
With `CC(C)=CCC/C(C)=C/Cn1cc(CC(N)(P(=O)(O)O)P(=O)(O)O)nn1` [Compound 18], in assay [4], the “GGDPS inhibitory activity in enzyme assay” value is recorded as “no activity”.

The term IC50 denotes the concentration that inhibits the measured activity by half.
